TGI data for 16 compounds are collected here from PubChem BioAssay (NCI).

Among the test systems are SR leukemia; MOLT-4 leukemia; OVCAR-3 ovarian; SK-MEL-5 melanoma; SNB-19 CNS; CAKI-1 renal; HCT-116 colon; PC-3 prostate; HT29 colon; SF-295 CNS; UO-31 renal; RXF 393 renal; HCT-15 colon.
Holding throughout (assay): DTP human tumour cell line panel, 48 h

The structures appear in SMILES notation.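 1) Cells in 96-well plates. 2) Compound, 48 h, 5 concentrations. 3) Linear interpolation between surrounding doses. 4) Unreached endpoint = highest concentration. TGI denotes the concentration required for complete inhibition of growth.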

The TGI is the concentration giving total growth inhibition. With `CN(/N=C/c1ccccn1)C1=NCCCCN1`, the total growth inhibition concentration (TGI) in the assay on SR leukemia, in the assay with MOLT-4 leukemia, in the assay with OVCAR-3 ovarian, in the assay with SK-MEL-5 melanoma, with SNB-19 CNS and with CAKI-1 renal was greater than 100 µM each time. Besides, the TGI in the assay on HCT-116 colon, in the assay on PC-3 prostate, with HT29 colon, in the assay with SF-295 CNS, in the assay with UO-31 renal and in the assay on RXF 393 renal was greater than 100 µM each time. This compound displayed a total growth inhibition concentration (TGI) with HCT-15 colon greater than 100 µM.
Turning to `CC(=O)NC1C(O)C(O)C(CO)OC1n1ncc(=O)[nH]c1=O` (stereo not drawn), the TGI with SR leukemia, in the assay with MOLT-4 leukemia, in the assay on OVCAR-3 ovarian, in the assay on SK-MEL-5 melanoma, with SNB-19 CNS and in the assay on CAKI-1 renal was greater than 100 µM each time. The total growth inhibition concentration (TGI) with HCT-116 colon, in the assay with PC-3 prostate, with HT29 colon, in the assay on SF-295 CNS, with UO-31 renal and in the assay on RXF 393 renal was greater than 100 µM in each case. The compound further registered a concentration for total growth inhibition (TGI) in the assay on HCT-15 colon greater than 100 µM.
For the compound `CC1(C)CCCCCCC2OC2CCCCCC(C)(C)C1=O` (stereo not drawn), the TGI in the assay with SR leukemia is greater than 70 µM; in the assay on MOLT-4 leukemia, 61.2 µM; in the assay with OVCAR-3 ovarian, greater than 100 µM; in the assay with SK-MEL-5 melanoma it was 50.2 µM; with SNB-19 CNS, greater than 100 µM; with CAKI-1 renal, greater than 100 µM. Besides, the TGI was greater than 100 µM with HCT-116 colon; greater than 94.6 µM in the assay on PC-3 prostate; greater than 60.5 µM in the assay on HT29 colon; greater than 67.3 µM in the assay on SF-295 CNS; 88.2 µM with UO-31 renal; 49.5 µM with RXF 393 renal. For the same compound, the TGI in the assay on HCT-15 colon is greater than 100 µM.
On to `COc1cc(NCc2ccc3nc(OC)c(OC)nc3c2)cc(OC)c1OC`, for which the total growth inhibition concentration (TGI) with SR leukemia, with MOLT-4 leukemia, with OVCAR-3 ovarian, in the assay with SK-MEL-5 melanoma, in the assay with SNB-19 CNS and in the assay with CAKI-1 renal was greater than 100 µM throughout. In addition, the TGI in the assay with HCT-116 colon, in the assay on PC-3 prostate, in the assay on HT29 colon, with SF-295 CNS, with UO-31 renal and in the assay with RXF 393 renal was greater than 100 µM in each case. The same compound returned a TGI in the assay with HCT-15 colon greater than 100 µM.
Take `CC(=O)OC1COC(n2c(-c3ccc(Cl)cc3)cc(-c3ccccc3)c(C#N)c2=S)C(OC(C)=O)C1OC(C)=O` (stereo not drawn): the TGI with SR leukemia is greater than 82.8 µM; in the assay with MOLT-4 leukemia, greater than 100 µM; in the assay on OVCAR-3 ovarian, 18.2 µM; in the assay with SK-MEL-5 melanoma, greater than 42.2 µM; with SNB-19 CNS, greater than 79.6 µM; in the assay on CAKI-1 renal it was 50 µM. In addition, the TGI in the assay on HCT-116 colon was greater than 51.7 µM; with PC-3 prostate, 46.3 µM; in the assay on HT29 colon it was greater than 64.6 µM; with SF-295 CNS it was 31.7 µM; in the assay on UO-31 renal, 38.4 µM; in the assay with RXF 393 renal, 26.9 µM. In addition, in the assay with HCT-15 colon, the total growth inhibition concentration (TGI) was greater than 100 µM.
Take `Cc1ccc(SCC(CF)OCn2cc(F)c(=O)[nH]c2=O)cc1` (stereo not drawn): the TGI with SR leukemia, in the assay on MOLT-4 leukemia, in the assay with OVCAR-3 ovarian, with SK-MEL-5 melanoma, in the assay with SNB-19 CNS and with CAKI-1 renal was greater than 100 µM throughout. The TGI with HCT-116 colon, in the assay on PC-3 prostate, with HT29 colon, with SF-295 CNS, in the assay with UO-31 renal and in the assay with RXF 393 renal was greater than 100 µM in each case. The compound further yielded a total growth inhibition concentration (TGI) in the assay with HCT-15 colon greater than 100 µM.
On to `CC1=NN(c2nc(N)nc(CSCc3nc(N)nc(N(C)C)n3)n2)C(C)(C)C1`, for which the concentration for total growth inhibition (TGI) with SR leukemia, in the assay with MOLT-4 leukemia, with OVCAR-3 ovarian, in the assay with SK-MEL-5 melanoma, in the assay on SNB-19 CNS and with CAKI-1 renal was greater than 100 µM in each case. Moreover, the concentration for total growth inhibition (TGI) in the assay with HCT-116 colon, in the assay with PC-3 prostate, with HT29 colon, in the assay on SF-295 CNS, in the assay on UO-31 renal and in the assay on RXF 393 renal was greater than 100 µM throughout. Besides, the TGI with HCT-15 colon is greater than 100 µM.
Take `N#Cc1sc2c(c1OC(=O)c1cccs1)c(=O)n(-c1ccccc1)c(=S)n2-c1ccccc1`: the TGI in the assay on SR leukemia is 71.4 µM; in the assay on MOLT-4 leukemia, 62.3 µM; in the assay on OVCAR-3 ovarian, greater than 100 µM; with SK-MEL-5 melanoma, 29.5 µM; with SNB-19 CNS it was greater than 100 µM; in the assay with CAKI-1 renal it was greater than 100 µM. In addition, the TGI in the assay with HCT-116 colon is 34.2 µM; in the assay with PC-3 prostate it was 64.6 µM; in the assay with HT29 colon it was greater than 100 µM; in the assay on SF-295 CNS it was 55.8 µM; in the assay with UO-31 renal it was 32.7 µM; in the assay with RXF 393 renal, 31.9 µM. The compound also had a TGI with HCT-15 colon of 40 µM.
Take `CCOC(=O)C(NC(=O)CC(C)C)(Nc1ccc(S(=O)(=O)Nc2nc(C)cc(C)n2)cc1)C(F)(F)F` (stereo not drawn): the total growth inhibition concentration (TGI) with SR leukemia, in the assay with MOLT-4 leukemia, in the assay with OVCAR-3 ovarian, in the assay on SK-MEL-5 melanoma, in the assay on SNB-19 CNS and with CAKI-1 renal was greater than 100 µM each time. The concentration for total growth inhibition (TGI) with HCT-116 colon, in the assay with PC-3 prostate, in the assay with HT29 colon, in the assay with SF-295 CNS, with UO-31 renal and in the assay with RXF 393 renal was greater than 100 µM in each case. Further, the concentration for total growth inhibition (TGI) with HCT-15 colon is greater than 100 µM.
`O=c1oc2ccccc2nc1/C=C(\O)c1ccc([N+](=O)[O-])cc1`: the TGI in the assay on SR leukemia, in the assay on MOLT-4 leukemia, with OVCAR-3 ovarian, with SK-MEL-5 melanoma, in the assay with SNB-19 CNS and in the assay on CAKI-1 renal was greater than 100 µM each time. Moreover, the TGI in the assay with HCT-116 colon, with PC-3 prostate, with HT29 colon, in the assay with SF-295 CNS, with UO-31 renal and in the assay with RXF 393 renal was greater than 100 µM throughout. In the assay with HCT-15 colon, this compound had a total growth inhibition concentration (TGI) greater than 100 µM.
As for `O=C1c2c(ccc3c2CCC3)CC12Cc1cc3c(cc1C2)CCC3`, the concentration for total growth inhibition (TGI) with SR leukemia, in the assay with MOLT-4 leukemia, in the assay with OVCAR-3 ovarian, with SK-MEL-5 melanoma, in the assay on SNB-19 CNS and with CAKI-1 renal was greater than 100 µM in each case. The TGI in the assay on HCT-116 colon, with PC-3 prostate, with HT29 colon, in the assay with SF-295 CNS, in the assay on UO-31 renal and in the assay on RXF 393 renal was greater than 100 µM each time. The concentration for total growth inhibition (TGI) in the assay on HCT-15 colon was greater than 100 µM.
With `O=c1c2cc([N+](=O)[O-])ccc2n2n1Cc1ccccc1C2`, the total growth inhibition concentration (TGI) in the assay with SR leukemia, in the assay on MOLT-4 leukemia, with OVCAR-3 ovarian, with SK-MEL-5 melanoma, in the assay on SNB-19 CNS and with CAKI-1 renal was greater than 100 µM throughout. Moreover, the TGI in the assay with HCT-116 colon, with PC-3 prostate, in the assay with HT29 colon, in the assay with SF-295 CNS, in the assay on UO-31 renal and in the assay on RXF 393 renal was greater than 100 µM in each case. In addition, in the assay with HCT-15 colon, the TGI was greater than 100 µM.
As for `COc1c2ccccc2c(OC)c2nc(C)ccc12`, the TGI with SR leukemia is greater than 79.5 µM; with MOLT-4 leukemia, 99.7 µM; in the assay with OVCAR-3 ovarian, greater than 100 µM; in the assay with SK-MEL-5 melanoma, greater than 100 µM; in the assay with SNB-19 CNS it was greater than 100 µM; in the assay with CAKI-1 renal, greater than 100 µM. For the same compound, the TGI in the assay with HCT-116 colon, in the assay with PC-3 prostate, in the assay with HT29 colon, in the assay with SF-295 CNS, in the assay with UO-31 renal and with RXF 393 renal was greater than 100 µM each time. In addition, the TGI in the assay with HCT-15 colon was greater than 100 µM.
In the case of `COc1ccc(-c2c(CN3CCOCC3)sc3nc4ccccc4n23)cc1`, the TGI with SR leukemia is 15.1 µM; with MOLT-4 leukemia it was greater than 100 µM; in the assay on OVCAR-3 ovarian, greater than 80.9 µM; in the assay on SK-MEL-5 melanoma, 98.8 µM; with SNB-19 CNS it was greater than 57.1 µM; in the assay on CAKI-1 renal, greater than 100 µM. Moreover, the total growth inhibition concentration (TGI) is greater than 57 µM with HCT-116 colon; greater than 67.4 µM in the assay on PC-3 prostate; 31.1 µM with HT29 colon; greater than 100 µM in the assay on SF-295 CNS; greater than 100 µM in the assay with UO-31 renal; greater than 47.5 µM in the assay with RXF 393 renal. In addition, the TGI in the assay on HCT-15 colon is greater than 95 µM.
Consider `CN(C(=O)Cc1ccc(Cl)c(Cl)c1)[C@@H]1CCCC[C@H]1[N+]1(C)CC=CC1`, for which the total growth inhibition concentration (TGI) in the assay with SR leukemia, in the assay on MOLT-4 leukemia, in the assay on OVCAR-3 ovarian, with SK-MEL-5 melanoma, in the assay on SNB-19 CNS and in the assay on CAKI-1 renal was greater than 100 µM throughout. In addition, the concentration for total growth inhibition (TGI) in the assay with HCT-116 colon, in the assay with PC-3 prostate, in the assay with HT29 colon, in the assay with SF-295 CNS, in the assay with UO-31 renal and with RXF 393 renal was greater than 100 µM each time. Further, in the assay with HCT-15 colon, the TGI is greater than 100 µM.
Consider `CN(C)CCCCN1c2ccccc2Sc2cc(N=[N+]=[N-])ccc21`, for which the TGI was greater than 100 µM in the assay with SR leukemia; 4.3 µM in the assay on MOLT-4 leukemia; 3.59 µM with OVCAR-3 ovarian; 3.18 µM in the assay on SK-MEL-5 melanoma; 19.9 µM in the assay on SNB-19 CNS; 3.73 µM in the assay with CAKI-1 renal. In addition, the total growth inhibition concentration (TGI) in the assay on HCT-116 colon was 3.32 µM; in the assay with PC-3 prostate, 4.22 µM; with HT29 colon it was 2.9 µM; in the assay on SF-295 CNS it was 4.05 µM; in the assay with UO-31 renal, 3.66 µM; with RXF 393 renal it was 10.6 µM. The TGI with HCT-15 colon amounted to 4.53 µM.
